Assay results reported in patent publication US8389557B2, “Triazole derivatives useful as Axl inhibitors” (Rigel Pharmaceuticals, Inc., priority 2005, dated 2013).

Molecular target: T1, Axl (Homo sapiens, UniProt P30530)
T1 construct: endogenous in cells; host or cells: HeLa cells
T1 sequence (P30530 26-894): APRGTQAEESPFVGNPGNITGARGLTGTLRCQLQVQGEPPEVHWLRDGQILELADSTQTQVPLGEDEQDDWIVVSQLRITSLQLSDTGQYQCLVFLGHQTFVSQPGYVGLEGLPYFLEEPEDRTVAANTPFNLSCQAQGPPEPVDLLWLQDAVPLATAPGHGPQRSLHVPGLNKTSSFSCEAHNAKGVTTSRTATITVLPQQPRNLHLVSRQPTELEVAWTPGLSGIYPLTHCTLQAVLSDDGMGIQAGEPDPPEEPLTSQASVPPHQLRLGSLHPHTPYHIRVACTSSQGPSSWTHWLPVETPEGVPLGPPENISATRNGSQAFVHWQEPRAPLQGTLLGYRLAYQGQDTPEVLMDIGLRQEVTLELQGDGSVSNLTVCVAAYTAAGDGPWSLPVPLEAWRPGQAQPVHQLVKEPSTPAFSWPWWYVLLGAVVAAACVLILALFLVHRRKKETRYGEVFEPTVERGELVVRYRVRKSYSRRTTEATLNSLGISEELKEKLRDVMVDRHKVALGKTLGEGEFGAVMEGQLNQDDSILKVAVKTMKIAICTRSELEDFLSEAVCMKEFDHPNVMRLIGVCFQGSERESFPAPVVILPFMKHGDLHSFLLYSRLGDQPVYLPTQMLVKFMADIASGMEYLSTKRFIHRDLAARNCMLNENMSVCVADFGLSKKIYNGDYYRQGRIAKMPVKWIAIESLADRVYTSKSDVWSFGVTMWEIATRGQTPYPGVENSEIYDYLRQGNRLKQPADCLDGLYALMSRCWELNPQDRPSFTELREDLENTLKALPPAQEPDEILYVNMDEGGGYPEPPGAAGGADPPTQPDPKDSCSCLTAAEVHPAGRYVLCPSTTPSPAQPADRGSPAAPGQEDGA
Test: Phospho-Akt in-cell Western assay (inhibition of Axl activity)
Assay type: cell-based
How it was run: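 HeLa cells on poly-L-lysine, starved 24 h in 0.5% FCS DMEM with Axl/Fc 500 ng/mL, pre-treated with compound 1 h at 37° C. Axl stimulated 5 min by anti-Axl/anti-mouse antibody cross-linking. Fixed cells probed with anti-phospho-Akt and HRP secondary, chemiluminescence read.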

[1] = inhibition of Axl activity, Table 1
[2] = Table 8, Hela cells, Axl antibody cross-linking stimulation, phospho-Akt chemiluminescence
[3] = inhibition of Axl activity, phospho-Akt in-cell Western assay, Table 1
[4] = Table 5, Hela cells, Axl antibody cross-linking stimulation, phospho-Akt chemiluminescence
[5] = Table 7, Hela cells, Axl antibody cross-linking stimulation, phospho-Akt chemiluminescence
[6] = Table 3, Hela cells, Axl antibody cross-linking stimulation, phospho-Akt chemiluminescence

## Cc1ccc(C(=O)n2nc(Nc3cccc(O)c3)nc2N)cc1 [(Ia-15), 5-amino-3-[3-(hydroxy)phenylamino]-1-(4-(methyl)phenyl)carbonyl-1H-1,2,4-triazole]
[1]
  IC50: 10000 to 20000 nM

## Cc1cccc(NC(=O)n2nc(N)nc2Nc2ccc(OCCN3CCCCC3)cc2)c1 [compound 187, 3-amino-N-(3-(methyl)phenyl)-5-[4-[2-(piperidin-1-yl)ethoxy]phenylamino]-1H-1,2,4-triazole-1-carboxamide]
[2]
  IC50: 1000 to 10000 nM

## Cc1cc(C)cc(C(=O)n2nc(Nc3ccc4c(c3)OCCO4)nc2N)c1 [compound 239, 5-amino-3-(1,4-benzodioxan-6-yl)amino-1-(3,5-dimethylphenyl)carbonyl-1H-1,2,4-triazole]
[3]
  IC50: 1000 to 10000 nM

## CC(C)c1ccc(C(=O)n2nc(Nc3ccc4c(c3)OCCO4)nc2N)cc1 [compound 232, 5-amino-3-(1,4-benzodioxan-6-yl)amino-1-(4-iso-propylphenyl)carbonyl-1H-1,2,4-triazole]
[1]
  IC50: 1000 to 10000 nM

## CC(C)(C)Oc1ccc(C(=O)n2nc(Nc3cccc(-c4cnco4)c3)nc2N)cc1 [compound 264, 5-amino-1-(4-(tert-butoxy)phenyl)carbonyl-3-[3-(1,3-oxazol-5-yl)phenylamino]-1H-1,2,4-triazole]
[3]
  IC50: 1000 to 10000 nM

## Cc1cccc(C(=O)n2nc(Nc3ccc4cn[nH]c4c3)nc2N)c1 [compound 160, 5-amino-3-(indazol-6-yl)amino-1-(3-(methyl)phenyl)carbonyl-1H-1,2,4-triazole]
[4]
  IC50: 1000 to 10000 nM

## Nc1ccc(C(=O)n2nc(Nc3ccc4c(c3)OCCO4)nc2N)cc1 [compound 243, 5-amino-1-(4-aminophenyl)carbonyl-3-(1,4-benzodioxan-6-yl)amino-1H-1,2,4-triazole]
[1]
  IC50: 1000 to 10000 nM

## CN(C)c1ccc(C(=O)n2nc(Nc3ccc(OCCn4ccnc4)cc3)nc2N)cc1 [compound 373, 5-amino-1-(4-(dimethylamino)phenyl)carbonyl-3-[4-[2-(imidazol-1-yl)ethoxy]phenylamino]-1H-1,2,4-triazole]
[3]
  IC50: < 1000 nM

## Nc1nc(Nc2ccc(OCCN3CCCC3)cc2)nn1C(=O)c1ccc2c(c1)OCCO2 [compound #17, 5-Amino-1-(1,4-benzodioxan-6-yl)carbonyl-3-[4-[2-(pyrrolidin-1-yl)ethoxy]phenylamino]-1H-1,2,4-triazole]
[3]
  IC50: < 1000 nM

## Nc1nc(Nc2ccc(OCCN3CCCCC3)cc2)nn1C(=O)NC1CCCC1 [compound 45, 5-amino-N-cyclopentyl-3-[4-[2-(piperidin-1-yl)ethoxy]phenylamino]-1H-1,2,4-triazole-1-carboxamide]
[5]
  IC50: 1000 to 10000 nM

## Cc1cccc(C(=O)n2nc(Nc3ccc4nn(C)cc4c3)nc2N)c1 [compound 222, 5-amino-3-(2-methyl-2H-indazol-5yl)amino-1-(3-methylphenyl)carbonyl-1H-1,2,4-triazole]
[4]
  IC50: > 20000 nM

## CC(C)(C)OC(=O)NC1CCOc2ccc(Nc3nc(N)n(C(=O)c4ccc(OC(C)(C)C)cc4)n3)cc21 (stereo not shown) [compound 275]
[4]
  IC50: > 20000 nM

## CC(C)Oc1ccc(C(=O)n2nc(Nc3ccc(OCCn4ccnc4)cc3)nc2N)cc1 [compound 372, 5-amino-1-(4-(iso-propoxy)phenyl)carbonyl-3-[4-[2-(imidazol-1-yl)ethoxy]phenylamino]-1H-1,2,4-triazole]
[3]
  IC50: < 1000 nM

## COc1cc(Nc2nc(N)n(C(=O)c3ccc(OC(C)(C)C)cc3)n2)ccc1OCCN1CCCC1 [compound 317, 5-amino-1-(4-(tert-butoxy)phenyl)carbonyl-3-[3-methoxy-4-[2-(pyrrolidin-1-yl)ethoxy]phenylamino]-1H-1,2,4-triazole]
[3]
  IC50: < 1000 nM

## CC(C)(C)Oc1cccc(C(=O)n2nc(N)nc2NC2C3C=CC(C3)C2C(N)=O)c1 (stereo not shown) [compound 347, 3-amino-1-(3-(tert-butoxy)phenyl)carbonyl-5-[(3-(aminocarbonyl)bicyclo[2.2.1]hept-5-en-2-yl)amino]-1H-1,2,4-triazole]
Table 6, Hela cells, Axl antibody cross-linking stimulation, phospho-Akt chemiluminescence
  IC50: > 20000 nM

## CN(C)CCOc1ccc(Nc2nc(N)n(C(=O)c3ccc(OC(C)(C)C)cc3)n2)cc1 [compound 83, 5-amino-3-[4-[2-(dimethylamino)ethoxy]phenylamino]-1-(4-(tert-butoxy)phenyl)carbonyl-1H-1,2,4-triazole]
[1]
  IC50: < 1000 nM

## Nc1nc(Nc2ccc(OCCN3CCCC3)cc2)nn1C(=O)c1c[nH]c2ccccc12 [compound 366, 5-amino-1-(1H-indol-3-yl)carbonyl-3-[4-[2-(pyrrolidin-1-yl)ethoxy]phenylamino]-1H-1,2,4-triazole]
[6]
  IC50: 1000 to 10000 nM

## CC(C)Oc1cccc(C(=O)n2nc(Nc3ccc(OCCN4CCOCC4)cc3)nc2N)c1 [compound 169, 5-amino-1-(3-(iso-propoxy)phenyl)carbonyl-3-[4-[2-(morpholin-4-yl)ethoxy]phenylamino]-1H-1,2,4-triazole]
[1]
  IC50: < 1000 nM

## CC(=O)N(C)c1ccc(Nc2nc(N)n(C(=O)NC3CCCCC3)n2)cc1 [compound 185, 3-[4-(acetyl(methyl)amino)phenyl]amino-5-amino-N-cyclohexyl-1H-1,2,4-triazole-1-carboxamide]
[5]
  IC50: > 20000 nM

## CC(C)(C)c1ccc(C(=O)n2nc(Nc3ccc(OCCN4CCOCC4)cc3)nc2N)cc1 [compound 266, 5-amino-1-(4-(tert-butyl)phenyl)carbonyl-3-[4-[2-(morpholin-4-yl)ethoxy]phenylamino]-1H-1,2,4-triazole]
[3]
  IC50: < 1000 nM

## CC(C)Oc1ccc(C(=O)n2nc(Nc3ccc(OCCCN4CCCC4)cc3)nc2N)cc1 [compound #10, 5-Amino-1-(4-(iso-propoxy)phenyl)carbonyl-3-[4-[3-(pyrrolidin-1-yl)propoxy]phenylamino]-1H-1,2,4-triazole]
[3]
  IC50: < 1000 nM

## CC(=O)Oc1cccc(C(=O)n2nc(Nc3ccc4c(c3)OCCO4)nc2N)c1 [compound 110, 1-(3-(Acetoxy)phenyl)carbonyl-5-amino-3-(1,4-benzodioxan-6-yl)amino-1H-1,2,4-triazole]
[1]
  IC50: 1000 to 10000 nM

## CC(C)Oc1ccc(C(=O)n2nc(Nc3cccc(OC(C)C)c3)nc2N)cc1 [compound 122, 5-amino-3-[3-(iso-propoxy)phenylamino]-1-(4-(iso-propoxy)phenyl)carbonyl-1H-1,2,4-triazole]
[1]
  IC50: 1000 to 10000 nM

## Nc1nc(Nc2ccc(OCCN3CCCCC3)cc2)nn1C(=O)NC1CCCCC1 [compound 42, 5-amino-N-cyclohexyl-3-[4-[2-(piperidin-1-yl)ethoxy]phenylamino]-1H-1,2,4-triazole-1-carboxamide]
[5]
  IC50: 1000 to 10000 nM

## COc1cc(Nc2nc(N)n(C(=O)c3ccc(-c4csnn4)cc3)n2)ccc1OCCN1CCCC1 [compound 319, 5-amino-1-(4-(1,2,3-thiadiazol-4-yl)phenyl)carbonyl-3-[3-methoxy-4-[2-(pyrrolidin-1-yl)ethoxy]phenylamino]-1H-1,2,4-triazole]
[3]
  IC50: < 1000 nM

## Nc1nc(Nc2ccc(OCCN3CCCC3)cc2)nn1C(=O)c1csnn1 [compound 312, 5-amino-1-(1,2,3-thiadiazol-4-yl)carbonyl-3-[4-[2-(pyrrolidin-1-yl)ethoxy]phenylamino]-1H-1,2,4-triazole]
[6]
  IC50: > 20000 nM

## CC(C)Oc1ccc(C(=O)n2nc(N)nc2Nc2ccc(OCCN3CCCC3)cc2)cc1 [compound 191, 3-amino-1-(4-iso-propoxyphenyl)carbonyl-5-[4-[2-(pyrrolidin-1-yl)ethoxy]phenylamino]-1H-1,2,4-triazole]
Table 2, Hela cells, Axl antibody cross-linking stimulation, phospho-Akt chemiluminescence
  IC50: 1000 to 10000 nM

## Nc1nc(Nc2ccc3c(c2)OCCO3)nn1C(=O)c1ccc(OCC(F)(F)F)cc1 [compound 230, 5-amino-3-(1,4-benzodioxan-6-yl)amino-1-(4-(2,2,2-trifluoroethoxy)phenyl)carbonyl-1H-1,2,4-triazole]
[1]
  IC50: > 20000 nM

## CC(=O)N(C)c1ccc(Nc2nc(N)nn2C(=O)Nc2ccc3c(c2)OCO3)cc1 [compound 176, 5-[4-(acetyl(methyl)amino)phenyl]amino-3-amino-N-(1,3-benzodioxol-5-yl)-1H-1,2,4-triazole-1-carboxamide]
[2]
  IC50: > 20000 nM

## CN(C)c1ccc(C(=O)n2nc(Nc3ccc(N4CCCC4)cc3)nc2N)cc1 [compound 299, 5-amino-1-(4-(dimethylamino)phenyl)carbonyl-3-[4-(pyrrolidin-1-yl)phenylamino]-1H-1,2,4-triazole]
[3]
  IC50: 1000 to 10000 nM

## Cc1cccc(C(=O)n2nc(Nc3ccc(OCCN4CCCCC4)cc3)nc2N)c1 [compound 59, 5-amino-1-(3-(methyl)phenyl)carbonyl-3-[4-[2-(piperidin-1-yl)ethoxy]phenylamino]-1H-1,2,4-triazole]
[1]
  IC50: < 1000 nM
